Data on 17 compounds can be found in patent US20110183969A1, “ANTIFUNGAL COMBINATION THERAPY” (priority 2008, published 2011).

What all share (assay): MIC (YAG medium)
Assay type in all cases: cell-based

One assay has as its system Aspergillus niger. Conditions: YAG medium, MIC banded into grades; for MIC: Aspergillus niger, read-out: MIC A. niger (grade). The essentials: (§1)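 Spores grown on Sabouraud agar and diluted in YAG medium (1% glucose, 1% ammonium chloride, 0.5% yeast extract) to final inocula of 1-2×10^4 cfu/mL over a 50-0.05 mg/L drug range. Read by OD485 after 24 hrs at 35° C. MIC (mg/L) is the lowest concentration inhibiting growth >70% versus drug-free control.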

Assay [1] deals with Aspergillus fumigatus AF210. Conditions: YAG medium, MIC banded into grades, AF210; for MIC: Aspergillus fumigatus, read-out: MIC A. fumigatus 210 (grade). The essentials:
as §1

In a further assay the test system is Aspergillus terreus AT4. Conditions: YAG medium, MIC banded into grades, AT4; for MIC: Aspergillus terreus, read-out: MIC A. terreus (grade). The essentials:
as §1

Assay [2] concerns Aspergillus fumigatus AF293. The settings on record: YAG medium, MIC banded into grades, AF293; for MIC: Aspergillus fumigatus, read-out: MIC A. fumigatus (grade). The method, boiled down: as §1
Another assay concerns Aspergillus terreus AT49. The settings on record: YAG medium, MIC banded into grades, AT49; for MIC: Aspergillus terreus, read-out: MIC A. terreus 49 (grade). The method, boiled down: as §1
For a further assay, the system named is Aspergillus flavus. Conditions: YAG medium, MIC banded into grades; for MIC: Aspergillus flavus, read-out: MIC A. flavus (grade). The essentials: as §1

In brackets after ≈: the same amount, converted by molar mass.

Consider `Cc1ccc(N2CCN(c3ccc(NC(=O)C(=O)c4c(-c5ccccc5)cc5ccccn45)cc3)CC2)nc1` [Example 74, N-{4-[4-(5-Methyl-pyridin-2-yl)-piperazin-1-yl]-phenyl}-2-oxo-2-(2-phenyl-indolizin-3-yl)-acetamide], for which the minimal inhibitory concentration (MIC) (in the assay with Aspergillus niger; in assay [1]; in the assay with Aspergillus terreus AT4; in assay [2]; with Aspergillus terreus AT49; with Aspergillus flavus) was less than 1 µg/mL throughout.
Turning to `CCc1ccnc(N2CCN(c3ccc(NC(=O)C(=O)c4c(-c5ccccc5)cc5ccccn45)cc3)CC2)c1` [Example 75, N-{4-[4-(4-ethyl-pyridin-2-yl)-piperazin-1-yl]-phenyl}-2-oxo-2-(2-phenyl-indolizin-3-yl)-acetamide], the minimal inhibitory concentration (MIC) (in the assay with Aspergillus niger; in assay [1]; in the assay on Aspergillus terreus AT4; in assay [2]; with Aspergillus terreus AT49; in the assay with Aspergillus flavus) was less than 1 µg/mL each time.
For the compound `COCCOCCOc1cc(C)nc(N2CCN(c3ccc(NC(=O)C(=O)c4c(-c5ccccc5)cc5ccccn45)cc3)CC2)c1` [Example 76, N-[4-(4-{4-[2-(2-methoxy-ethoxy)-ethoxy]-6-methyl-pyridin-2-yl}-piperazin-1-yl)-phenyl]-2-oxo-2-(2-phenyl-indolizin-3-yl)-acetamide], the MIC (with Aspergillus niger; in assay [1]; with Aspergillus terreus AT4; in assay [2]; in the assay with Aspergillus terreus AT49; in the assay on Aspergillus flavus) was less than 1 µg/mL throughout.
Regarding `O=C(Nc1ccc(N2CCN(c3ccc(CN4CCOCC4)cn3)CC2)cc1)C(=O)c1c(-c2ccccc2)cc2ccccn12` [Example 77, N-{4-[4-(5-morpholin-4-yl-methyl-pyridin-2-yl)-piperazin-1-yl]-phenyl}-2-oxo-2-(2-phenyl-indolizin-3-yl)-acetamide], the “MIC A. niger (grade)” value in the assay on Aspergillus niger is on record as 3 (A grade of 3 represents an MIC of less than 1 mg/L). In addition, the “MIC A. fumigatus 210 (grade)” value in assay [1] was 3 (A grade of 3 represents an MIC of less than 1 mg/L). For the same compound, the “MIC A. terreus (grade)” value in the assay with Aspergillus terreus AT4 was 3 (A grade of 3 represents an MIC of less than 1 mg/L). The “MIC A. fumigatus (grade)” value in assay [2] is 3 (A grade of 3 represents an MIC of less than 1 mg/L). For the same compound, the “MIC A. terreus 49 (grade)” value against Aspergillus terreus AT49 is listed as 3 (A grade of 3 represents an MIC of less than 1 mg/L). In the assay on Aspergillus flavus, the “MIC A. flavus (grade)” value is recorded as 3 (A grade of 3 represents an MIC of less than 1 mg/L).
As for `Cc1cc(C)nc(N(C)CCNc2ccc(NC(=O)C(=O)c3c(-c4ccccc4)cc4ccccn34)cc2)c1` [Example 78, N-(4-{2-[(4,6-Dimethyl-pyridin-2-yl)-methyl-amino]-ethylamino}-phenyl)-2-oxo-2-(2-phenyl-indolizin-3-yl)-acetamide], the MIC (in the assay with Aspergillus niger; in assay [1]; in the assay on Aspergillus terreus AT4; in assay [2]; in the assay on Aspergillus terreus AT49; in the assay with Aspergillus flavus) was less than 1 µg/mL in each case.
On to `Cc1cc(C)nc(N2CCC(O)(c3ccc(NC(=O)C(=O)c4c(-c5ccccc5)cc5ccccn45)cc3)CC2)c1` [Example 79, N-[4-(4-hydroxy-4′,6′-dimethyl-3,4,5,6-tetrahydro-2H-[1,2′]-bipyridinyl-4-yl)-phenyl]-2-oxo-2-(2-phenyl-indolizin-3-yl)-acetamide], for which the minimal inhibitory concentration (MIC) (in the assay on Aspergillus niger; in assay [1]; in the assay with Aspergillus terreus AT4; in assay [2]; in the assay on Aspergillus terreus AT49; in the assay with Aspergillus flavus) was greater than 10 µg/mL throughout.
For the compound `Cc1cc(C)nc(N2CCN(c3ccc(NC(=O)C(=O)c4c(-c5ccccc5)cc5ccccn45)c(C)c3)CC2)c1` [Example 80, N-{4-[4-(4,6-Dimethyl-pyridin-2-yl)-piperazin-1-yl]-2-methyl-phenyl}-2-oxo-2-(2-phenyl-indolizin-3-yl)-acetamide], the MIC (with Aspergillus niger; in assay [1]; with Aspergillus terreus AT4; in assay [2]; in the assay with Aspergillus terreus AT49; with Aspergillus flavus) was less than 1 µg/mL throughout.
With `COCc1cc(NC(=O)C(=O)c2c(-c3ccccc3)cc3ccccn23)ccc1N1CCN(c2cc(C)cc(C)n2)CC1` [Example 81, N-{4-[4-(4,6-Dimethyl-pyridin-2-yl)-piperazin-1-yl]-3-methoxymethyl-phenyl}-2-oxo-2-(2-phenyl-indolizin-3-yl)-acetamide], the MIC (in the assay on Aspergillus niger; in assay [1]; in the assay on Aspergillus terreus AT4; in assay [2]; with Aspergillus terreus AT49; with Aspergillus flavus) was less than 1 µg/mL throughout.
In the case of `Cc1cc(C)nc(N2CCN(c3ccc(NC(=O)C(=O)c4c(-c5ccccc5)cc5ccccn45)cc3C)CC2)c1` [Example 82, N-{4-[4-(4,6-Dimethyl-pyridin-2-yl)-piperazin-1-yl]-3-methyl-phenyl}-2-oxo-2-(2-phenyl-indolizin-3-yl)-acetamide], the minimum inhibitory concentration (MIC) (in the assay with Aspergillus niger; in assay [1]; in the assay with Aspergillus terreus AT4; in assay [2]; in the assay with Aspergillus terreus AT49; in the assay with Aspergillus flavus) was less than 1 µg/mL in each case.
Turning to `COCc1cc(N2CCN(c3cc(C)cc(C)n3)CC2)ccc1NC(=O)C(=O)c1c(-c2ccccc2)cc2ccccn12` [Example 83, N-{4-[4-(4,6-Dimethyl-pyridin-2-yl)-piperazin-1-yl]-2-methoxymethyl-phenyl}-2-oxo-2-(2-phenyl-indolizin-3-yl)-acetamide], the MIC (with Aspergillus niger; in assay [1]; in the assay with Aspergillus terreus AT4; in assay [2]; in the assay on Aspergillus terreus AT49; with Aspergillus flavus) was less than 1 µg/mL in each case.
As for `Cc1cc(C)nc(N2CCN(c3ccc(NC(=O)C(=O)c4c(-c5ccccc5)cc5ccccn45)cc3C(=O)O)CC2)c1` [Example 84, 2-[4-(4,6-Dimethyl-pyridin-2-yl)-piperazin-1-yl]-5-[2-oxo-2-(2-phenyl-indolizin-3-yl)-acetylamino]-benzoic acid], the minimal inhibitory concentration (MIC) with Aspergillus niger was 1 to 10 µg/mL (≈ 1.74 to 17.4 µM); in assay [1] it was 1 to 10 µg/mL (≈ 1.74 to 17.4 µM); with Aspergillus terreus AT4, 1 to 10 µg/mL (≈ 1.74 to 17.4 µM); in assay [2], less than 1 µg/mL; with Aspergillus terreus AT49, 1 to 10 µg/mL (≈ 1.74 to 17.4 µM); with Aspergillus flavus, less than 1 µg/mL.
As for `O=C(Nc1ccc(-c2cocn2)cc1)C(=O)c1c(-c2ccc(-c3ccccc3)cc2)cc2ccccn12` [Example 85, 2-(2-Biphenyl-4-yl-indolizin-3-yl)-N-(4-oxazol-4-yl-phenyl)-2-oxo-acetamide], the MIC with Aspergillus niger is greater than 10 µg/mL; in assay [1] it was greater than 10 µg/mL; in the assay with Aspergillus terreus AT4, less than 1 µg/mL; in assay [2], greater than 10 µg/mL; in the assay with Aspergillus terreus AT49, less than 1 µg/mL; in the assay with Aspergillus flavus it was less than 1 µg/mL.
In the case of `O=C(Nc1ccc(N2CCN(c3cccc(N(CCO)CCO)n3)CC2)cc1)C(=O)c1c(-c2ccccc2)cc2ccccn12` [Example 86, N-[4-(4-{6-[Bis-(2-hydroxy-ethyl)-amino]-pyridin-2-yl}-piperazin-1-yl)-phenyl]-2-oxo-2-[2-phenyl-indolizin-3-yl)-acetamide], the MIC in the assay on Aspergillus niger is 1 to 10 µg/mL (≈ 1.65 to 16.5 µM); in assay [1], 1 to 10 µg/mL (≈ 1.65 to 16.5 µM); in the assay on Aspergillus terreus AT4, 1 to 10 µg/mL (≈ 1.65 to 16.5 µM); in assay [2], less than 1 µg/mL; in the assay on Aspergillus terreus AT49, 1 to 10 µg/mL (≈ 1.65 to 16.5 µM); in the assay with Aspergillus flavus, less than 1 µg/mL.
`O=C(Nc1ccc(N2CCN(c3cccc(NCCO)n3)CC2)cc1)C(=O)c1c(-c2ccccc2)cc2ccccn12` [Example 87, N-(4-{4-[6-(2-hydroxyethylamino)-pyridin-2-yl]-piperazin-1-yl}-phenyl)-2-oxo-2-(2-phenyl-indolizin-3-yl)-acetamide]: the minimal inhibitory concentration (MIC) is greater than 10 µg/mL with Aspergillus niger; 1 to 10 µg/mL (≈ 1.78 to 17.8 µM) in assay [1]; 1 to 10 µg/mL (≈ 1.78 to 17.8 µM) with Aspergillus terreus AT4; less than 1 µg/mL in assay [2]; less than 1 µg/mL with Aspergillus terreus AT49; less than 1 µg/mL with Aspergillus flavus.
In the case of `O=C(Nc1ccc(N2CCN(c3cccc(CCO)n3)CC2)cc1)C(=O)c1c(-c2ccccc2)cc2ccccn12` [Example 88, N-(4-{4-[6-(2-hydroxy-ethyl)-pyridin-2-yl]-piperazin-1-yl}-phenyl)-2-oxo-2-(2-phenyl-indolizin-3-yl)-acetamide], the MIC (in the assay with Aspergillus niger; in assay [1]; in the assay with Aspergillus terreus AT4; in assay [2]; in the assay on Aspergillus terreus AT49; in the assay on Aspergillus flavus) was less than 1 µg/mL each time.
Take `O=C(Nc1ccc(N2CCN(c3cc(OCCO)ccn3)CC2)cc1)C(=O)c1c(-c2ccccc2)cc2ccccn12` [Example 89, N-(4-{4-[4-(2-Hydroxy-ethoxy)-pyridin-2-yl]-piperazin-1-yl}-phenyl)-2-oxo-2-(2-phenyl-indolizin-3-yl)-acetamide]: the minimal inhibitory concentration (MIC) in the assay with Aspergillus niger is 1 to 10 µg/mL (≈ 1.78 to 17.8 µM); in assay [1], 1 to 10 µg/mL (≈ 1.78 to 17.8 µM); in the assay with Aspergillus terreus AT4, 1 to 10 µg/mL (≈ 1.78 to 17.8 µM); in assay [2] it was 1 to 10 µg/mL (≈ 1.78 to 17.8 µM); in the assay on Aspergillus terreus AT49, less than 1 µg/mL; in the assay on Aspergillus flavus it was less than 1 µg/mL.
On to `O=C(Nc1ccc(NCCOc2ccccn2)cc1)C(=O)c1c(-c2ccccc2)cc2ccccn12` [Example 90, 2-Oxo-2-(2-phenyl-indolizin-3-yl)-N-{4-[2-(pyridin-2-yloxy)-ethylamino]-phenyl}-acetamide], for which the minimum inhibitory concentration (MIC) (in the assay with Aspergillus niger; in assay [1]; with Aspergillus terreus AT4; in assay [2]; in the assay on Aspergillus terreus AT49; with Aspergillus flavus) was less than 1 µg/mL each time.
